Values quoted from earlier work in paper PMC4128785 (Molecular Pharmaceutics, 2014).

Details: Sc(III) complex of DOTA

thermodynamic stability (−log K): 27.0
Compound: O=C(O)CN1CCN(CC(=O)O)CCN(CC(=O)O)CCN(CC(=O)O)CC1 [DOTA, 1,4,7,10-tetraazacyclododecane-N,N′,N″,N‴-tetraacetic acid]
